Conditions: Liquid

CC(=O)N(C)C [N,N-dimethylethanamide]
Conditions | mass density [kg/m3]
288.15 K, 100 kPa | 945.7
288.15 K, 2000 kPa | 946.7
288.15 K, 4000 kPa | 947.8
288.15 K, 6000 kPa | 949
288.15 K, 8100 kPa | 950.1
288.15 K, 9900 kPa | 951.1
288.15 K, 12000 kPa | 952.2
288.15 K, 13900 kPa | 953.2
288.15 K, 16000 kPa | 954.3
288.15 K, 18100 kPa | 955.4
288.15 K, 20000 kPa | 956.5
298.15 K, 100 kPa | 937
298.15 K, 2000 kPa | 938.1
298.15 K, 4100 kPa | 939.4
298.15 K, 6100 kPa | 940.6
298.15 K, 8100 kPa | 941.8
298.15 K, 10000 kPa | 943
298.15 K, 12100 kPa | 944.1
298.15 K, 14200 kPa | 945.3
298.15 K, 16300 kPa | 946.4
298.15 K, 18400 kPa | 947.5
298.15 K, 20100 kPa | 948.6
308.15 K, 100 kPa | 927.9
308.15 K, 2000 kPa | 929.1
308.15 K, 4100 kPa | 930.4
308.15 K, 6100 kPa | 931.6
308.15 K, 8100 kPa | 932.8
308.15 K, 10100 kPa | 934
308.15 K, 12100 kPa | 935.3
308.15 K, 14200 kPa | 936.5
308.15 K, 16300 kPa | 937.6
308.15 K, 18200 kPa | 938.7
308.15 K, 20200 kPa | 939.9
318.15 K, 100 kPa | 918.7
318.15 K, 2000 kPa | 919.8
318.15 K, 4000 kPa | 921.2
318.15 K, 6000 kPa | 922.5
318.15 K, 8000 kPa | 923.8
318.15 K, 9900 kPa | 925
318.15 K, 12000 kPa | 926.3
318.15 K, 14000 kPa | 927.5
318.15 K, 16000 kPa | 928.7
318.15 K, 18100 kPa | 930
318.15 K, 20000 kPa | 931.3

CCCCCCCl [1-chlorohexane]
Conditions | mass density [kg/m3]
288.15 K, 100 kPa | 882.7
288.15 K, 2000 kPa | 884.4
288.15 K, 4100 kPa | 886
288.15 K, 5900 kPa | 887.5
288.15 K, 8100 kPa | 889.2
288.15 K, 10100 kPa | 890.7
288.15 K, 12200 kPa | 892.3
288.15 K, 14200 kPa | 893.8
288.15 K, 16200 kPa | 895.2
288.15 K, 18200 kPa | 896.7
288.15 K, 20200 kPa | 898.3
298.15 K, 100 kPa | 873.1
298.15 K, 2000 kPa | 874.8
298.15 K, 4100 kPa | 876.6
298.15 K, 6100 kPa | 878.3
298.15 K, 8100 kPa | 879.9
298.15 K, 10200 kPa | 881.7
298.15 K, 12100 kPa | 883.3
298.15 K, 14200 kPa | 885
298.15 K, 16400 kPa | 886.6
298.15 K, 18400 kPa | 888.1
298.15 K, 20200 kPa | 889.6
308.15 K, 100 kPa | 864.3
308.15 K, 2000 kPa | 866.1
308.15 K, 4100 kPa | 868
308.15 K, 6100 kPa | 869.7
308.15 K, 8100 kPa | 871.5
308.15 K, 10200 kPa | 873.3
308.15 K, 12100 kPa | 875
308.15 K, 14200 kPa | 876.7
308.15 K, 16200 kPa | 878.3
308.15 K, 18300 kPa | 879.9
308.15 K, 20200 kPa | 881.5
318.15 K, 100 kPa | 855.1
318.15 K, 2000 kPa | 857
318.15 K, 4000 kPa | 858.9
318.15 K, 6100 kPa | 860.9
318.15 K, 8100 kPa | 862.7
318.15 K, 10100 kPa | 864.6
318.15 K, 11900 kPa | 866.1
318.15 K, 14100 kPa | 868.1
318.15 K, 16100 kPa | 869.9
318.15 K, 18000 kPa | 871.4
318.15 K, 20000 kPa | 872.8

CN(C)C=O [dimethylformamide]
Conditions | mass density [kg/m3]
288.15 K, 100 kPa | 953.4
288.15 K, 2100 kPa | 954.5
288.15 K, 4000 kPa | 955.6
288.15 K, 6100 kPa | 956.8
288.15 K, 7900 kPa | 957.8
288.15 K, 9900 kPa | 958.9
288.15 K, 12100 kPa | 960.1
288.15 K, 14000 kPa | 961.2
288.15 K, 16000 kPa | 962.2
288.15 K, 18000 kPa | 963.3
288.15 K, 19800 kPa | 964.3
298.15 K, 100 kPa | 943.8
298.15 K, 2000 kPa | 945
298.15 K, 4100 kPa | 946.2
298.15 K, 6100 kPa | 947.4
298.15 K, 8100 kPa | 948.6
298.15 K, 10100 kPa | 949.8
298.15 K, 12100 kPa | 951
298.15 K, 14100 kPa | 952.1
298.15 K, 16300 kPa | 953.3
298.15 K, 18300 kPa | 954.3
298.15 K, 20100 kPa | 955.5
308.15 K, 100 kPa | 935
308.15 K, 2000 kPa | 936.2
308.15 K, 4100 kPa | 937.6
308.15 K, 6100 kPa | 938.9
308.15 K, 8100 kPa | 940
308.15 K, 10100 kPa | 941.2
308.15 K, 12100 kPa | 942.5
308.15 K, 14300 kPa | 943.7
308.15 K, 16300 kPa | 944.9
308.15 K, 18300 kPa | 946
308.15 K, 20200 kPa | 947
318.15 K, 100 kPa | 925.5
318.15 K, 2100 kPa | 926.9
318.15 K, 4000 kPa | 928.3
318.15 K, 6000 kPa | 929.6
318.15 K, 7900 kPa | 930.8
318.15 K, 10200 kPa | 932.2
318.15 K, 12000 kPa | 933.4
318.15 K, 14000 kPa | 934.5
318.15 K, 16000 kPa | 935.8
318.15 K, 18000 kPa | 937
318.15 K, 20200 kPa | 938.1

CCCCCl [1-chlorobutane]
mass density [kg/m3]
Conditions | 288.15 K | 298.15 K | 308.15 K | 318.15 K
100 kPa | 891.8 | 880.6 | 870 | 859.1
2000 kPa | 893.6 | 882.6 | 872.1 | 861.5
4000 kPa | – | – | – | 863.8
4100 kPa | 895.6 | 884.9 | 874.4 | –
6100 kPa | 897.5 | 886.8 | 876.5 | 866.3
8100 kPa | 899.4 | 888.7 | 878.6 | 868.7
10100 kPa | 901.3 | 890.9 | 880.8 | 870.9
12100 kPa | 903 | 892.8 | 882.9 | 873.1
14100 kPa | 904.9 | – | – | 875.1
14200 kPa | – | 894.7 | 884.9 | –
16200 kPa | – | 896.5 | 886.8 | 877.2
16300 kPa | 906.7 | – | – | –
18300 kPa | – | 898.5 | 888.8 | –
18400 kPa | 908.5 | – | – | 879.3
20200 kPa | 910.3 | – | 890.6 | 881.2
20400 kPa | – | 900.2 | – | –

CCCCCCCCCl [1-chlorooctane]
Conditions | mass density [kg/m3]
288.15 K, 100 kPa | 877.3
288.15 K, 2000 kPa | 878.8
288.15 K, 4000 kPa | 880.2
288.15 K, 6000 kPa | 881.6
288.15 K, 8000 kPa | 883
288.15 K, 10000 kPa | 884.4
288.15 K, 11900 kPa | 885.8
288.15 K, 13900 kPa | 887.1
288.15 K, 16000 kPa | 888.4
288.15 K, 18000 kPa | 889.7
288.15 K, 20100 kPa | 891.2
298.15 K, 100 kPa | 868.8
298.15 K, 2000 kPa | 870.2
298.15 K, 4100 kPa | 871.8
298.15 K, 6100 kPa | 873.3
298.15 K, 8100 kPa | 874.8
298.15 K, 10000 kPa | 876.2
298.15 K, 12100 kPa | 877.8
298.15 K, 14200 kPa | 879.3
298.15 K, 16300 kPa | 880.7
298.15 K, 18300 kPa | 882.1
298.15 K, 20200 kPa | 883.4
308.15 K, 100 kPa | 861.4
308.15 K, 2000 kPa | 862.8
308.15 K, 4000 kPa | 864.4
308.15 K, 6000 kPa | 865.9
308.15 K, 7900 kPa | 867.5
308.15 K, 10100 kPa | 869.1
308.15 K, 12000 kPa | 870.5
308.15 K, 14000 kPa | 872
308.15 K, 15900 kPa | 873.3
308.15 K, 18000 kPa | 874.8
308.15 K, 20000 kPa | 876.5
318.15 K, 100 kPa | 852.9
318.15 K, 2000 kPa | 854.5
318.15 K, 4000 kPa | 856.2
318.15 K, 6000 kPa | 857.9
318.15 K, 8000 kPa | 859.5
318.15 K, 10000 kPa | 861.2
318.15 K, 12000 kPa | 862.8
318.15 K, 14000 kPa | 864.3
318.15 K, 16000 kPa | 865.8
318.15 K, 18000 kPa | 867.3
318.15 K, 20100 kPa | 868.9
